Legend:
[1] = Solubility of linker-payloads and quenched linker-payloads; assay type: physicochemical; conditions: quenched linker-payloads, Table 6a
Source text: The quenched linker-payloads were water soluble and used for the pH stability test.

[2] = pH stability of quenched linker-payloads in buffers (LCMS); assay type: physicochemical; conditions: for percentage of the remaining compound: RT
Procedure: To a solution of compound (payloads or quenched-linker-payloads) in DMSO (0.2-1.0 mg/mL) was added corresponding PBS buffer (V(buffer)/V(DMSO)=5) to give test samples (pH 3, 4, 5, 6, 7.4, and 8.5, or other special pH). The test samples were incubated at RT for at least 3 days and monitored by LCMS (i.e., at 1 hr, 2 hr, 4 hr, 8 hr, and 1 day, 2 day, 3 day, 4 day, 5 day, 6 day, 7 day, 8 day, 9 day, and 21 day time points). Initial concentrations of the samples were 0.2 mg/mL (DMSO/buffer, v/v=1/5). […] The payloads and quenched linker-payloads were mostly stable at pH >5.0, 6.0, 7.4 and 8.5 after 3 days. In more acidic conditions, such as pH 1.0, the payloads or linker-payloads were easily cleaved to release D*-OH.

[3] = Solubility of quenched linker-payloads; conditions: Table 3c, linker-payloads quenched with taurine-PEG4-azide or CD-N3

For `CCCC1O[C@@H]2C[C@H]3[C@@H]4CCC5=CC(=O)C=C[C@]5(C)[C@H]4[C@@H](O)C[C@]3(C)[C@]2(C(=O)COCN(C)C(=O)CNC(=O)OCc2ccc(NC(=O)[C@H](CCCNC(N)=O)NC(=O)[C@@H](NC(=O)CCOCCOCCOCCOCCNC(=O)CCC(=O)N3Cc4ccccc4-c4c(nnn4CCOCCOCCOCCOCCC(=O)NCCS(=O)(=O)O)-c4ccccc43)C(C)C)cc2)O1` (stereo partly shown) [Q1L1-PII-8], which Solubility [1] is on record?
Its Solubility is over 1000 µg/mL.

And the “percentage of the remaining compound” value ([2]; DMSO, 1 Day)?
The value was 100%.

What about the “percentage of the remaining compound” value ([2]; DMSO, 2 Day) of the same compound?
Its value is 100%.

And the “percentage of the remaining compound” value ([2]; DMSO, 3 Day)?
The value was 100%.

And the “percentage of the remaining compound” value ([2]; DMSO, 4 Day)?
Its value is 100%.

And the “percentage of the remaining compound” value ([2]; DMSO, 7 Day)?
The value was 100%.

What about the “percentage of the remaining compound” value ([2]; DMSO, 1 hr) of the same compound?
Its value is 100%.

And the “percentage of the remaining compound” value ([2]; DMSO, 4 hr)?
Its value is 100%.

What about the “percentage of the remaining compound” value ([2]; pH 3.0, 1 Day) of the same compound?
Its value is 93%.

And the “percentage of the remaining compound” value ([2]; pH 3.0, 2 Day)?
The value was 89%.

And the “percentage of the remaining compound” value ([2]; pH 3.0, 3 Day)?
Its value is 84%.

And the “percentage of the remaining compound” value ([2]; pH 3.0, 4 Day)?
The value was 79%.

What about the “percentage of the remaining compound” value ([2]; pH 3.0, 7 Day) of the same compound?
The value was 65%.

And the “percentage of the remaining compound” value ([2]; pH 3.0, 1 hr)?
The value was 100%.

And the “percentage of the remaining compound” value ([2]; pH 3.0, 4 hr)?
Its value is 100%.

What about the “percentage of the remaining compound” value ([2]; pH 4.0, 1 Day) of the same compound?
The value was 100%.

What about the “percentage of the remaining compound” value ([2]; pH 4.0, 2 Day) of the same compound?
The value was 99%.

What about the “percentage of the remaining compound” value ([2]; pH 4.0, 3 Day) of the same compound?
The value was 99%.

And the “percentage of the remaining compound” value ([2]; pH 4.0, 4 Day)?
Its value is 98%.

What about the “percentage of the remaining compound” value ([2]; pH 4.0, 7 Day) of the same compound?
The value was 96%.

And the “percentage of the remaining compound” value ([2]; pH 4.0, 1 hr)?
The value was 100%.

And the “percentage of the remaining compound” value ([2]; pH 4.0, 4 hr)?
Its value is 100%.

What about the “LP: percentage of linker-payloads remaining” value ([2]; pH 4.0, day 1) of the same compound?
Its value is 100%.

And the “P: percentage of budesonide released from the linker-payloads” value (from here on “P: percentage of budesonide released”) ([2]; pH 4.0, day 1)?
Its value is 0%.

And the “LP: percentage of linker-payloads remaining” value ([2]; pH 4.0, day 2)?
The value was 99%.

And the “P: percentage of budesonide released” value ([2]; pH 4.0, day 2)?
The value was 0%.

And the “LP: percentage of linker-payloads remaining” value ([2]; pH 4.0, day 7)?
Its value is 96%.

What about the “P: percentage of budesonide released” value ([2]; pH 4.0, day 7) of the same compound?
Its value is 3%.

What about the “percentage of the remaining compound” value ([2]; pH 5.0, 1 Day) of the same compound?
Its value is 100%.

And the “percentage of the remaining compound” value ([2]; pH 5.0, 2 Day)?
Its value is 100%.

And the “percentage of the remaining compound” value ([2]; pH 5.0, 3 Day)?
The value was 100%.

What about the “percentage of the remaining compound” value ([2]; pH 5.0, 4 Day) of the same compound?
Its value is 100%.

What about the “percentage of the remaining compound” value ([2]; pH 5.0, 7 Day) of the same compound?
The value was 100%.

What about the “percentage of the remaining compound” value ([2]; pH 5.0, 1 hr) of the same compound?
The value was 100%.

What about the “percentage of the remaining compound” value ([2]; pH 5.0, 4 hr) of the same compound?
Its value is 100%.

And the “LP: percentage of linker-payloads remaining” value ([2]; pH 5.0, day 1)?
The value was 100%.

What about the “P: percentage of budesonide released” value ([2]; pH 5.0, day 1) of the same compound?
Its value is 0%.

And the “LP: percentage of linker-payloads remaining” value ([2]; pH 5.0, day 2)?
The value was 100%.

What about the “P: percentage of budesonide released” value ([2]; pH 5.0, day 2) of the same compound?
Its value is 0%.

And the “LP: percentage of linker-payloads remaining” value ([2]; pH 5.0, day 7)?
The value was 100%.

And the “P: percentage of budesonide released” value ([2]; pH 5.0, day 7)?
The value was 0%.

What about the “percentage of the remaining compound” value ([2]; pH 7.4, 1 Day) of the same compound?
The value was 100%.

And the “percentage of the remaining compound” value ([2]; pH 7.4, 2 Day)?
The value was 100%.

And the “percentage of the remaining compound” value ([2]; pH 7.4, 3 Day)?
Its value is 100%.

What about the “percentage of the remaining compound” value ([2]; pH 7.4, 4 Day) of the same compound?
Its value is 100%.

And the “percentage of the remaining compound” value ([2]; pH 7.4, 7 Day)?
The value was 100%.

And the “percentage of the remaining compound” value ([2]; pH 7.4, 1 hr)?
Its value is 100%.

And the “percentage of the remaining compound” value ([2]; pH 7.4, 4 hr)?
The value was 100%.

What about the “LP: percentage of linker-payloads remaining” value ([2]; pH 7.4, day 1) of the same compound?
Its value is 100%.

And the “P: percentage of budesonide released” value ([2]; pH 7.4, day 1)?
Its value is 0%.

What about the “LP: percentage of linker-payloads remaining” value ([2]; pH 7.4, day 2) of the same compound?
The value was 100%.

And the “P: percentage of budesonide released” value ([2]; pH 7.4, day 2)?
Its value is 0%.

What about the “LP: percentage of linker-payloads remaining” value ([2]; pH 7.4, day 7) of the same compound?
The value was 100%.

What about the “P: percentage of budesonide released” value ([2]; pH 7.4, day 7) of the same compound?
Its value is 0%.

And the “Solubility” value [3]?
Its value is over 1000 µg/mL.

Which Solubility ([1]; water, read-out: Solubility) does the source give for `CC(C)[C@H](NC(=O)CCOCCOCCOCCOCCNC(=O)CCC(=O)N1Cc2ccccc2-c2c(nnn2CCOCCOCCOCCOCCC(=O)NCCS(=O)(=O)O)-c2ccccc21)C(=O)N[C@@H](CCCNC(N)=O)C(=O)Nc1ccc(COC(=O)NCC(=O)NCOCC(=O)[C@@]2(O)[C@H](C)C[C@H]3[C@@H]4CCC5=CC(=O)C=C[C@]5(C)[C@@]4(F)[C@@H](O)C[C@@]32C)cc1` [Q1L1-PI] here?
The Solubility was over 1000 µg/mL.

And the “percentage of the remaining compound” value ([2]; DMSO, 1 Day)?
Its value is 100%.

And the “percentage of the remaining compound” value ([2]; DMSO, 2 Day)?
The value was 100%.

What about the “percentage of the remaining compound” value ([2]; DMSO, 3 Day) of the same compound?
Its value is 100%.

What about the “percentage of the remaining compound” value ([2]; DMSO, 4 Day) of the same compound?
Its value is 100%.

And the “percentage of the remaining compound” value ([2]; DMSO, 7 Day)?
The value was 100%.

What about the “percentage of the remaining compound” value ([2]; DMSO, 1 hr) of the same compound?
Its value is 100%.

And the “percentage of the remaining compound” value ([2]; DMSO, 4 hr)?
Its value is 100%.

What about the “percentage of the remaining compound” value ([2]; pH 3.0, 1 Day) of the same compound?
Its value is 100%.

And the “percentage of the remaining compound” value ([2]; pH 3.0, 2 Day)?
The value was 100%.

And the “percentage of the remaining compound” value ([2]; pH 3.0, 3 Day)?
Its value is 96%.

What about the “percentage of the remaining compound” value ([2]; pH 3.0, 4 Day) of the same compound?
Its value is 95%.

And the “percentage of the remaining compound” value ([2]; pH 3.0, 7 Day)?
Its value is 91%.

What about the “percentage of the remaining compound” value ([2]; pH 3.0, 1 hr) of the same compound?
The value was 100%.

What about the “percentage of the remaining compound” value ([2]; pH 3.0, 4 hr) of the same compound?
The value was 100%.

What about the “percentage of the remaining compound” value ([2]; pH 4.0, 1 Day) of the same compound?
The value was 100%.

And the “percentage of the remaining compound” value ([2]; pH 4.0, 2 Day)?
Its value is 100%.

And the “percentage of the remaining compound” value ([2]; pH 4.0, 3 Day)?
The value was 100%.

And the “percentage of the remaining compound” value ([2]; pH 4.0, 4 Day)?
The value was 100%.

What about the “percentage of the remaining compound” value ([2]; pH 4.0, 7 Day) of the same compound?
Its value is 100%.

And the “percentage of the remaining compound” value ([2]; pH 4.0, 1 hr)?
The value was 100%.

What about the “percentage of the remaining compound” value ([2]; pH 4.0, 4 hr) of the same compound?
The value was 100%.

What about the “percentage of the remaining compound” value ([2]; pH 5.0, 1 Day) of the same compound?
The value was 100%.

And the “percentage of the remaining compound” value ([2]; pH 5.0, 2 Day)?
The value was 100%.

What about the “percentage of the remaining compound” value ([2]; pH 5.0, 3 Day) of the same compound?
Its value is 100%.

What about the “percentage of the remaining compound” value ([2]; pH 5.0, 4 Day) of the same compound?
The value was 100%.

And the “percentage of the remaining compound” value ([2]; pH 5.0, 7 Day)?
Its value is 100%.

What about the “percentage of the remaining compound” value ([2]; pH 5.0, 1 hr) of the same compound?
The value was 100%.

What about the “percentage of the remaining compound” value ([2]; pH 5.0, 4 hr) of the same compound?
Its value is 100%.

What about the “percentage of the remaining compound” value ([2]; pH 7.4, 1 Day) of the same compound?
Its value is 100%.

What about the “percentage of the remaining compound” value ([2]; pH 7.4, 2 Day) of the same compound?
Its value is 100%.

And the “percentage of the remaining compound” value ([2]; pH 7.4, 3 Day)?
Its value is 100%.

And the “percentage of the remaining compound” value ([2]; pH 7.4, 4 Day)?
Its value is 100%.

And the “percentage of the remaining compound” value ([2]; pH 7.4, 7 Day)?
The value was 100%.

What about the “percentage of the remaining compound” value ([2]; pH 7.4, 1 hr) of the same compound?
The value was 100%.

And the “percentage of the remaining compound” value ([2]; pH 7.4, 4 hr)?
The value was 100%.

From patent US20230119539A1, “TRACELESS LINKERS AND PROTEIN-CONJUGATES THEREOF” (Regeneron Pharmaceuticals, Inc., priority 2019, published 2023)
